Measured values reported in US9062124B2, “GIP-based mixed agonists for treatment of metabolic disorders and obesity” (priority 2008, dated 2015).
Bridges are numbered along the chain shown (N, C = ends). Where no end group is shown, it is not given here. [ ]: non-standard residue; d: D form. PEG 40 kDa = PEG (40 kDa) covalently attached to Cys; Aib = CC(C)(N)C(=O)O

Key:
[1] = Body weight of mice after peptide injection; details: for reduction of body weight: subcutaneous QW, 70 or 210 nmol/kg/week; for % change in body weight: Example 26, intraperitoneal, 3 or 10 nmol/kg/week, up to Day 7; for total change in body weight: subcutaneous, Day 7
[2] = Blood glucose levels of mice after peptide injection; details: for blood glucose levels: Example 28, 10 nmol/kg, Day 0 versus Day 7
[3] = Food intake of mice after peptide injection; type: in vivo; details: Example 20; DIO mice, subcutaneous QW, 70 or 210 nmol/kg/week
[4] = Glucose tolerance test (1-hour and 24-hour GTT) in DIO mice; type: in vivo; details: Example 26; for potency in GTT compared with GLP-1 agonist control peptide: 1 or 3 nmol/kg/week versus control at 10 nmol/kg/week; for blood glucose levels in 1-hour and 24-hour GTT: DIO mice, intraperitoneal, 1, 3 or 10 nmol/kg/week, versus vehicle control
Protocol: A 1-hour glucose tolerance test (GTT) was performed on the mice by intraperitoneally injecting a 25% (w/v) glucose saline solution into the mice one hour after injection with one of the peptides or vehicle control. The glucose saline solution was administered to the mice at a dose of 1.5 g per kg of mouse body weight. Blood glucose levels were measured at the time of injection of peptide or vehicle control (−60 min), at the time of glucose saline solution injection (0 min), or at 15, 30, 60, or 120 min post injection with the glucose saline solution.
A 24-hour GTT also was performed on the mice in the same manner as the 1-hour GTT, except that the glucose saline solution was administered to the mice 24 hours after injection with the peptide or vehicle control. The results of the 24-hour GTT are showri in FIG. 8.

[5] = system: glucagon receptor, GLP-1 receptor or GIP receptor; assay: Agonist profile across receptors assigned from the cAMP reporter assay data; type: cell-based; details: assigned from the in vitro EC50 data of Tables 1-4

| Substance | reduction of body weight ([1]; Example 20, DIO mice, compared with pegylated glucagon/GLP-1 co-agonist) | reduction of blood glucose levels ([2]; Example 20, DIO mice, subcutaneous QW, 70 or 210 nmol/kg/week) | reduction of cumulative food intake [3] | reduction of body weight ([1]; Example 22, DIO mice) | % change in body weight ([1]; DIO mice) | total change in body weight ([1]; Example 28, DIO mice, 10 nmol/kg) | blood glucose levels ([2]; DIO mice, subcutaneous) | potency in GTT compared with GLP-1 agonist control peptide [4] | blood glucose levels in 1-hour and 24-hour GTT [4] | receptor activity profile (glucagon / GLP-1 / GIP agonism) [5] | total change in body weight ([1]; Example 27, mice, 10 or 35 nmol/kg/week) | total change in blood glucose ([2]; Example 27, mice, subcutaneous, 10 or 35 nmol/kg/week, Day 7) |
| --- | --- | --- | --- | --- | --- | --- | --- | --- | --- | --- | --- | --- |
| Pro3 C24 GIP NH2 (1-42) 40K PEG: amino acids 1-42 of GIP with Pro at position 3, Cys at position 24 attached to 40K PEG, C-terminal amide (YAPGTFISDYSIAMDKIHQQDFVC(PEG 40 kDa)WLLAQKGKKNDWKHNITQ-NH2) [reference compound] | neither the GIP antagonist nor the GIP agonist peptide were effective | neither the GIP antagonist nor the GIP agonist peptide were effective | neither the GIP antagonist nor the GIP agonist peptide were effective |  |  |  |  |  |  |  |  |  |
| mt-178: pegylated, cyclic, lactam-containing GIP-active glucagon analog; GLP-1/GIP co-agonist peptide (Y[Aib]EGTFTSDYSIYLDEQAAKEFVNWLLAGGPSSGAPPPSC(PEG 40 kDa)-NH2; lactam 16-20) |  |  |  | a little more effective at reducing body weight in the mice as Chimera 2 AIB2, but not as effective as Chimera 2 AIB2 lactam | lost weight to the same or greater extent of mice injected with the GLP-agonist control peptide | greatest loss of body weight 7 days after injection | decreased | greater than that of the GLP-1 agonist control peptide | exhibited decreased levels of blood glucose | exemplary GLP-1/GIP co-agonist peptides |  |  |
| mt-274: pegylated, linear peptide lacking a lactam, Glu at position 3, PEG on C-terminal Cys at position 40 (Y[Aib]EGTFTSDYSIYLDKQAA[Aib]EFVNWLLAGGPSSGAPPPSC(PEG 40 kDa)-NH2) |  |  |  |  | lost weight to the same or greater extent of mice injected with the GLP-agonist control peptide |  | decreased | appeared to have the highest potency | exhibited decreased levels of blood glucose |  | most dramatic changes in body weight | most dramatic changes in blood glucose |
